{"source": "patent US20240398814A1", "about": "“KRAS INHIBITOR AND HDAC INHIBITOR COMBINATION FOR THE TREATMENT OF CANCER” (Northwestern University, priority 2023, published 2024)", "key": {"KL LJE1 cells": {"system": "KL LJE1 cells", "test": "Western blot and qRT-PCR of FGFR1, NKX2-1 and ERK phosphorylation in drug-treated KL LJE1 cells", "format": "cell-based, mouse", "details": "13 days", "experimental": "(§1) All cell lines were incubated at 37° C. and were maintained in an atmosphere containing 5% CO2. Cells were tested for Mycoplasma (Lonza) using manufacturer's conditions and were deemed negative. Cells were grown in Dulbecco's modified Eagles medium (DMEM) plus 10% fetal bovine serum (Gibco) and were continuously maintained under antibiotic selection for stable cell lines. Proliferation assays were performed by plating 2×10^3 cells per well of a 6-well plate, and cells were counted 5 days post-plating. Drug treatments were carried out using the following doses: entinostat 1 uM or 2 uM, RGFP966 10uM, TSA 0.5 uM, BRD3308 5 uM, trametinib 5 nM, 10 nM, and 25 nM, and MRTX1133 10 nM, 25 nM, and 50 nM, as indicated for the indicated treatment lengths. Media was changed and fresh drug added every 2 days.\n(§2) mRNA was prepared using the Quick-RNA Miniprep kit (Zymo Research), including DNase treatment. cDNA was synthesized from 2 μg of RNA using SuperScript III (Life Technologies), and qPCR was carried out with diluted cDNA, appropriate primers, and SYBR Green PCR master mix (ThermoFisher Scientific) using a C1000 Thermal Cycler (BioRad). Relative mRNA levels were calculated using the delta Ct method, using Tbp as an internal control.\nProtein lysates in CST buffer (20 mM Tris pH 7.5, 150 mM NaCl, 1% Triton X-100, 50 mM NaF, 1 mM EDTA, 1 mM EGTA, 2.5 mM PyroPhosphate, 2 mM beta-glycerol-phosphate, 1 mM orthovanadate, 0.01 mM Calyculan A) with protease inhibitors were equilibrated for protein levels using a BCA protein assay kit (Pierce), resolved on 8% SDS-PAGE gels, and transferred to membrane. Membranes were blocked in milk, incubated o/n at 4C in diluted primary antibody, washed with TBS-T, incubated 1 hr in secondary antibody diluted in TBS-T plus milk, washed in TBS-T, and developed using SuperSignal ECL. Secondary antibodies: anti-rabbit (Millipore AP132P) and anti-mouse (Millipore AP124P). Nuclear fractions were isolated using a NE-PER nuclear and cytoplasmic extraction kit (Thermofisher) under manufacturers conditions."}, "A549 cells": {"system": "A549 cells", "test": "qRT-PCR of chemokine gene expression in A549 cells", "format": "cell-based, human", "details": "2 uM entinostat 3 days, 5 uM BRD3308 4 days", "experimental": "as §1, §2"}}, "data": [{"smiles": "Nc1ccccc1NC(=O)c1ccc(CNC(=O)OCc2cccnc2)cc1", "note": "[entinostat]", "values": [{"measurement": "FGFR1 protein", "setting": "KL LJE1 cells; Western blot, 10 nM trametinib, 1 uM entinostat", "value": "neither FGFR1 protein or mRNA levels were impacted"}, {"measurement": "FGFR1 mRNA levels", "setting": "KL LJE1 cells; qRT-PCR, 1 uM entinostat alone", "value": "neither FGFR1 protein or mRNA levels were impacted"}, {"measurement": "chemokine (SASP) gene expression", "setting": "A549 cells", "value": "induced the expression of these genes"}]}]}
